Here are results for 1 compound from article PMC6287599, “2,6-Bis(2-Benzimidazolyl)Pyridine (BBP) Is a Potent and Selective Inhibitor of Small Conductance Calcium-Activated Potassium (SK) Channels” (Frontiers in Pharmacology, 2018).

“Also recorded” adds a separate entry of the source.

One test addresses hSK2 (Homo sapiens, UniProt Q9H2S1). Nature of the test: Manual whole cell patch clamp, HEK293 transiently transfected with hSK2. The format is cell-based. Conditions: BBP 1 μM, compared to positive control bicuculline methiodide 100 μM, n = 5, read-out: Inhibition of hSK2 current. On the procedure: HEK293 cells were transiently co-transfected with the plasmid of interest (hBK, hSK1, hSK2, hSK3 WT, rSK3 H491N, or hIK) and eGFP using standard Lipofectamine™ 2000 (Thermo Fisher Scientific, Waltham, Massachussets, USA) transfection protocols. After transfection, cells were incubated overnight before the experiments.
Manual patch clamp experiments were performed at room temperature in the whole cell configuration with a HEKA EPC9 amplifier and the Patchmaster software (HEKA Elektronik, Ludwigshafen, Germany). All currents were elicited every 2 s using an incremental 200 ms voltage-ramp protocol starting at −80 mV and finishing at +80 mV from a holding potential of 0 mV. […] Currents were measured using the same solutions as the ones used for automated patch clamp, with symmetrical potassium concentrations and a free intracellular calcium concentration of 400 nM. […]
(§1) To assess the effect of BBP on other calcium-activated potassium channels (hBK, hSK3 WT, rSK3 H491N, and hIK), each individual current was first normalized to its cell size using membrane's capacitance (pA/pF) before statistical analysis. […] Statistical significance between saline and the effect of both BBP and the corresponding reference compound was determined for each channel using one-way ANOVA analysis. […]

The target in another test is Kv1.5 (Homo sapiens, UniProt P22460). Description: Two-electrode voltage clamp in Xenopus laevis oocytes, Kv1.5. Conditions: BBP 10 μM, TEVC, n = 5. The format is cell-based. On the procedure: cRNA was prepared from linearized plasmids using the mMESSAGE mMACHINE T7 kit (Ambion, USA) and quantified by UV spectroscopy (NanoDrop, Thermo Scientific, Wilmington, USA). Xenopus laevis oocytes were acquired from EcoCyte Bioscience (Castrop-Rauxel, Germany). Oocytes were injected with 50 nL cRNA and currents were recorded after 2 days of incubation at 19°C. Currents were recorded at a sampling rate of 10 kHz using a TEVC amplifier (Dagan CA-1B; IL, USA), and borosilicate glass recording electrodes (Module Ohm, Herlev, Denmark), made with a DMZ Universal Puller (Zeitz Instruments, Martinsried, Germany) with a resistance of 0.5–1 MΩ when filled with 2 M KCl. Oocytes were superfused with Kulori (pH 7.4) solution containing NaCl 90 mM, KCl 4 mM, MgCl2 1 mM, CaCl2 1 mM, 4-(2-hydroxyethyl)-1-piperazineethanesulfonic acid 5 mM, and currents were elicited with the voltage protocols previously indicated (Skarsfeldt et al., [2016]), from a holding potential of −80 mV. […]
as §1

Kv1.5, sequence (P22460 whole entry, the tested form may be a part): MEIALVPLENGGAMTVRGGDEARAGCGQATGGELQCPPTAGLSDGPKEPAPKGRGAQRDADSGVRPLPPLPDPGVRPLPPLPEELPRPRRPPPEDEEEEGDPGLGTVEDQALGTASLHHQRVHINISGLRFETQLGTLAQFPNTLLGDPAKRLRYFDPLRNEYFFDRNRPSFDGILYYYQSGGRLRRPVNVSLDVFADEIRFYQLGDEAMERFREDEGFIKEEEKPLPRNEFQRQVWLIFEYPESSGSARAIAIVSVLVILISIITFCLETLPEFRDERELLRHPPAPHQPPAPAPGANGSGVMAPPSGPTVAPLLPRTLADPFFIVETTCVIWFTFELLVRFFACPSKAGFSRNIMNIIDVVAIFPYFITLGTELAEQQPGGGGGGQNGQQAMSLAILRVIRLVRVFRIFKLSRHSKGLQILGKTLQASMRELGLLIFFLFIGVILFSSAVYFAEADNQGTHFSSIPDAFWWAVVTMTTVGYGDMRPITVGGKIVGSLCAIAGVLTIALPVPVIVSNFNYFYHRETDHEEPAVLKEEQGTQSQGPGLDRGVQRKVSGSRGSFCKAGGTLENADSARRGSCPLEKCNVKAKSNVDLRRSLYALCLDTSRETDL

Regarding `c1cc(-c2nc3ccccc3[nH]2)nc(-c2nc3ccccc3[nH]2)c1` [BBP, 2,6-Bis(2-benzimidazolyl)pyridine], the inhibition at 1 µM at hSK2 amounted to 94.8 ± 2.1%. The “Effect on Kv1.5 current” value on Kv1.5 is “did not have any effect; also recorded: did not significantly affect”.
